Laboratory results reported in patent US20240409585A1, “MACROCYCLIC IMMUNOMODULATORS” (priority 2021, published 2024).
Bridge positions count the residues as written; N and C are the ends. Square brackets hold non-standard residues; d marks the D form. Peptide text beside a SMILES is read from it. * marks the point of attachment. Phe(4-COOH) = N[C@@H](Cc1ccc(C(=O)O)cc1)C(=O)O; Bip = N[C@@H](Cc1ccc(-c2ccccc2)cc1)C(=O)O; Phe(3-Me) = Cc1cccc(C[C@H](N)C(=O)O)c1; Phe(2-F) = N[C@@H](Cc1ccccc1F)C(=O)O; mTyr = N[C@@H](Cc1cccc(O)c1)C(=O)O; 3Pal = N[C@@H](Cc1cccnc1)C(=O)O; 4Pal = N[C@@H](Cc1ccncc1)C(=O)O; Cha = N[C@@H](CC1CCCCC1)C(=O)O; Cit = NC(=O)NCCC[C@H](N)C(=O)O; Pip = O=C(O)[C@@H]1CCCCN1; dDab = NCC[C@@H](N)C(=O)O; Carboxymethyl = O=C(O)C*; NMeA = CN[C@@H](C)C(=O)O; Orn = NCCC[C@H](N)C(=O)O; Dab = NCC[C@H](N)C(=O)O; Dap = NC[C@H](N)C(=O)O

biological target: T1, PE-labeled human PD-L1-Ig binding to Jurkat cell line over-expressing human PD-1 (Jurkat-PD-1) (Homo sapiens, UniProt Q15116); test: Jurkat-PD-1 Cell Binding High-Content Screening Assay (CBA): Method 1; conditions: Jurkat HPDL1 PD1 IC50 (uM) (Method 1), Jurkat-hPD-1 cells, PE-labeled PD-L1-Ig 20 nM final
T1 construct: expressed in transfected cells; host or cells: Jurkat
T1 sequence (Q15116 25-288): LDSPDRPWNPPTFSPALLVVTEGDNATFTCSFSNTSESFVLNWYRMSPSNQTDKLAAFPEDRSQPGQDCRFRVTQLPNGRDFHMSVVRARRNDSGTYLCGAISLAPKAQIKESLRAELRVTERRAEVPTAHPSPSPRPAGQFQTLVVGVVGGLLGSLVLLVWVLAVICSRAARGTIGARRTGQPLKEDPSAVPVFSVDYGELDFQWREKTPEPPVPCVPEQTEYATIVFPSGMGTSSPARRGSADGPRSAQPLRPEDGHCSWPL

| SMILES | IC50 [µM] |
| --- | --- |
| CC(C)C[C@@H]1NC(=O)[C@H](CCN)NC(=O)[C@@H](CC(C)C)NC(=O)[C@H](C)N(C)C(=O)[C@H](CCCNC(=N)N)NC(=O)[C@H](Cc2ccc(-c3ccccc3)cc2)NC(=O)[C@H](C(C)C)NC(=O)[C@H](Cc2c[nH]c3ccccc23)NC(=O)[C@H](CC(=O)O)NC(=O)[C@H](Cc2ccc(O)cc2)NC(=O)[C@H](Cc2ccccc2)NC(=O)CSC[C@@H](C(=O)N[C@@H](C)C(N)=O)NC(=O)[C@H](CO)NC(=O)[C@H](C(C)C)NC1=O [Compound 1030] ({CH2CO}-FYDWV[Bip]R[NMeA][dL][Dab]LVSCA-NH2; thioether N-14) | 0.03 |

same assay, conditions: Jurkat-hPD-1 cells, PE-labeled PD-L1-Ig 20 nM final; read-out: Jurkat HPDL1 PD1 IC50 (uM) (Method 1)

| SMILES | IC50 [µM] |
| --- | --- |
| CC(C)C[C@@H]1NC(=O)[C@H](Cc2c[nH]c3ccccc23)NC(=O)[C@H](CC(=O)O)NC(=O)[C@H](Cc2ccncc2)NC(=O)[C@H](Cc2ccc(OCC(=O)O)cc2)NC(=O)CSC[C@@H](C(=O)N[C@H](CC(N)=O)C(N)=O)NC(=O)[C@H](CO)NC(=O)[C@H](C(C)C)NC(=O)[C@H](CC2CCCCC2)NC(=O)[C@H](CCN)NC(=O)[C@@H](CC(C)C)NC(=O)[C@H](C)N(C)C(=O)[C@H](Cc2ccc(O)cc2)NC(=O)[C@H](Cc2ccc(-c3ccccc3)cc2)NC1=O [Compound 1907] ({CH2CO}-Y(Carboxymethyl)[4Pal]DWL[Bip]Y[NMeA][dL][Dab][Cha]VSC[dN]-NH2; thioether N-14) | 0.12 |
| CC(C)C[C@@H]1NC(=O)CSC[C@@H](C(=O)NCC(N)=O)NC(=O)[C@H](CO)NC(=O)[C@H](C(C)C)NC(=O)[C@H](CC(C)C)NC(=O)[C@H](CC(N)=O)NC(=O)[C@H](CC(N)=O)NC(=O)[C@H](C)N(C)C(=O)[C@H](C(C)C)NC(=O)[C@H](Cc2ccc(-c3ccccc3)cc2)NC(=O)[C@H](CC(C)C)NC(=O)[C@H](Cc2c[nH]c3ccccc23)NC(=O)[C@H](CC(=O)O)NC(=O)[C@H](Cc2ccc(O)cc2)NC1=O [Compound 1815] ({CH2CO}-LYDWL[Bip]V[NMeA]NNLVSCG-NH2; thioether N-14) | 0.31 |
| Cc1cccc(C[C@@H]2NC(=O)[C@H](CC(N)=O)NC(=O)CSC[C@@H](C(=O)N[C@@H](C)C(N)=O)NC(=O)[C@H]([C@@H](C)O)NC(=O)[C@H](C(C)C)NC(=O)[C@H](CC(C)C)NC(=O)[C@H](CCN)NC(=O)[C@@H](CC(C)C)NC(=O)[C@H](C)N(C)C(=O)[C@H](CCCNC(N)=O)NC(=O)[C@H](Cc3ccc(-c4ccccc4)cc3)NC(=O)[C@H](C(C)C)NC(=O)[C@H](Cc3c[nH]c4ccccc34)NC(=O)[C@H](CC(=O)O)NC2=O)c1 [Compound 1311] ({CH2CO}-N[Phe(3-Me)]DWV[Bip][Cit][NMeA][dL][Dab]LVTCA-NH2; thioether N-14) | 0.05 |
| Cc1cccc(C[C@@H]2NC(=O)[C@H](CC(=O)O)NC(=O)[C@H](Cc3ccc(OCC(=O)O)cc3)NC(=O)[C@H](CN)NC(=O)CSC[C@@H](C(N)=O)NC(=O)[C@H](CC(N)=O)NC(=O)[C@H](C(C)C)NC(=O)[C@H](CC3CCCCC3)NC(=O)[C@H](CCN)NC(=O)[C@@H](CC(C)C)NC(=O)[C@@H]3CCCCN3C(=O)[C@H](Cc3ccc(OCC(=O)O)cc3)NC(=O)[C@H](Cc3ccc(-c4ccccc4)cc3)NC(=O)[C@H](Cc3ccc(OCC(=O)O)cc3)NC2=O)c1 [Compound 1895] ({CH2CO}-[Dap]Y(Carboxymethyl)D[Phe(3-Me)]Y(Carboxymethyl)[Bip]Y(Carboxymethyl)[Pip][dL][Dab][Cha]VNC-NH2; thioether N-14) | 0.11 |
| CC(C)C[C@@H]1NC(=O)[C@H](CCN)NC(=O)[C@@H](CC(C)C)NC(=O)[C@H](C)N(C)C(=O)[C@H](CCCN)NC(=O)[C@H](Cc2ccc(-c3ccccc3)cc2)NC(=O)[C@H](C(C)C)NC(=O)[C@H](Cc2c[nH]c3ccccc23)NC(=O)[C@H](CC(=O)O)NC(=O)[C@H](Cc2ccc(C(=O)O)cc2)NC(=O)[C@H](CC(N)=O)NC(=O)CSC[C@@H](C(=O)N[C@@H](C)C(N)=O)NC(=O)[C@H]([C@@H](C)O)NC(=O)[C@H](C(C)C)NC1=O [Compound 1386] ({CH2CO}-N[Phe(4-COOH)]DWV[Bip][Orn][NMeA][dL][Dab]LVTCA-NH2; thioether N-14) | 0.05 |
| Cc1cccc(C[C@@H]2NC(=O)[C@H](CC(N)=O)NC(=O)[C@H](Cc3ccc(OCC(=O)O)cc3)NC(=O)[C@H]([C@@H](C)O)NC(=O)CSC[C@@H](C(=O)N[C@@H](CCN)C(N)=O)NC(=O)[C@H](CCC(=O)O)NC(=O)[C@H](C(C)C)NC(=O)[C@H](CC3CCCCC3)NC(=O)[C@H](CCN)NC(=O)[C@@H](CC(C)C)NC(=O)[C@H](C)N(C)C(=O)[C@H](Cc3ccc(OCC(=O)O)cc3)NC(=O)[C@H](Cc3ccc(-c4ccccc4)cc3)NC(=O)[C@H](Cc3ccc(OCC(=O)O)cc3)NC2=O)c1 [Example 2281] ({CH2CO}-TY(Carboxymethyl)N[Phe(3-Me)]Y(Carboxymethyl)[Bip]Y(Carboxymethyl)[NMeA][dL][Dab][Cha]VEC[Dab]-NH2; thioether N-14) | 0.77 |
| Cc1cccc(C[C@@H]2NC(=O)[C@H](CC(=O)O)NC(=O)[C@H](Cc3ccc(OCC(=O)O)cc3)NC(=O)[C@H](CN)NC(=O)CSC[C@@H](C(=O)N[C@@H](C)C(N)=O)NC(=O)[C@H]([C@@H](C)O)NC(=O)[C@H](C(C)C)NC(=O)[C@H](CC(C)C)NC(=O)[C@H](CCN)NC(=O)[C@@H](CC(C)C)NC(=O)[C@H](C)N(C)C(=O)[C@H](CCCNC(=N)N)NC(=O)[C@H](Cc3ccc(-c4ccccc4)cc3)NC(=O)[C@H](C(C)C)NC2=O)c1 [Compound 1456] ({CH2CO}-[Dap]Y(Carboxymethyl)D[Phe(3-Me)]V[Bip]R[NMeA][dL][Dab]LVTCA-NH2; thioether N-14) | 0.04 |
| CC(C)C[C@@H]1NC(=O)[C@H](CCN)NC(=O)[C@@H](CC(C)C)NC(=O)[C@H](C)N(C)C(=O)[C@H](CCCNC(=N)N)NC(=O)[C@H](Cc2ccc(-c3ccccc3)cc2)NC(=O)[C@H](C(C)C)NC(=O)[C@H](Cc2c[nH]c3ccccc23)NC(=O)[C@H](CC(=O)O)NC(=O)[C@H](Cc2cccc(O)c2)NC(=O)[C@H](CC(N)=O)NC(=O)CSC[C@@H](C(=O)N[C@@H](C)C(N)=O)NC(=O)[C@H]([C@@H](C)O)NC(=O)[C@H](C(C)C)NC1=O [Compound 1355] ({CH2CO}-N[mTyr]DWV[Bip]R[NMeA][dL][Dab]LVTCA-NH2; thioether N-14) | 0.13 |
| CC(C)C[C@@H]1NC(=O)[C@H](CC(N)=O)NC(=O)[C@@H](CC(C)C)NC(=O)[C@H](C)N(C)C(=O)[C@H](CCCNC(=N)N)NC(=O)[C@H](Cc2ccc(-c3ccccc3)cc2)NC(=O)[C@H](C(C)C)NC(=O)[C@H](Cc2c[nH]c3ccccc23)NC(=O)[C@H](CC(=O)O)NC(=O)[C@H](Cc2ccc(O)cc2)NC(=O)[C@H](CC(N)=O)NC(=O)CSC[C@@H](C(=O)N[C@@H](C)C(N)=O)NC(=O)[C@H]([C@@H](C)O)NC(=O)[C@H](C(C)C)NC1=O [Compound 1245] ({CH2CO}-NYDWV[Bip]R[NMeA][dL]NLVTCA-NH2; thioether N-14) | 0.1 |

The next lines start with the values.

| IC50 [µM] | SMILES |
| --- | --- |
| 0.04 | CC[C@H](C)[C@@H]1NC(=O)[C@H](Cc2ccc(-c3ccccc3)cc2)NC(=O)[C@H](C(C)C)NC(=O)[C@H](Cc2c[nH]c3ccccc23)NC(=O)[C@H](CC(=O)O)NC(=O)[C@H](Cc2ccc(O)cc2)NC(=O)[C@H](CN)NC(=O)CSC[C@@H](C(=O)N[C@@H](C)C(N)=O)NC(=O)[C@H]([C@@H](C)O)NC(=O)[C@H](C(C)C)NC(=O)[C@H](CC(C)C)NC(=O)[C@H](CCCNC(=N)N)NC(=O)[C@@H](CC(C)C)NC(=O)[C@H](C)N(C)C1=O [Compound 1488] ({CH2CO}-[Dap]YDWV[Bip]I[NMeA][dL]RLVTCA-NH2; thioether N-14) |
| 0.03 | CC(C)C[C@@H]1NC(=O)[C@H](CCN)NC(=O)[C@@H](CC(C)C)NC(=O)[C@H](C)N(C)C(=O)[C@H](C(C)C)NC(=O)[C@H](Cc2ccc(-c3ccccc3)cc2)NC(=O)[C@H](C(C)C)NC(=O)[C@H](Cc2c[nH]c3ccccc23)NC(=O)[C@H](CC(=O)O)NC(=O)[C@H](Cc2ccccc2F)NC(=O)[C@H](CN)NC(=O)CSC[C@@H](C(=O)N[C@@H](C)C(N)=O)NC(=O)[C@H]([C@@H](C)O)NC(=O)[C@H](C(C)C)NC1=O [Compound 1442] ({CH2CO}-[Dap][Phe(2-F)]DWV[Bip]V[NMeA][dL][Dab]LVTCA-NH2; thioether N-14) |
| 0.04 | CC(C)C[C@@H]1NC(=O)[C@H](CCCNC(=N)N)NC(=O)[C@@H](CC(C)C)NC(=O)[C@H](C)N(C)C(=O)[C@H](CCCNC(=N)N)NC(=O)[C@H](Cc2ccc(-c3ccccc3)cc2)NC(=O)[C@H](C(C)C)NC(=O)[C@H](Cc2c[nH]c3ccccc23)NC(=O)[C@H](CC(=O)O)NC(=O)[C@H](Cc2ccc(OCC(=O)O)cc2)NC(=O)[C@H](Cc2cccnc2)NC(=O)CSC[C@@H](C(=O)N[C@@H](C)C(N)=O)NC(=O)[C@H]([C@@H](C)O)NC(=O)[C@H](C(C)C)NC1=O [Compound 1110] ({CH2CO}-[3Pal]Y(Carboxymethyl)DWV[Bip]R[NMeA][dL]RLVTCA-NH2; thioether N-14) |
| 0.02 | Cc1cccc(C[C@@H]2NC(=O)[C@H](CC(=O)O)NC(=O)[C@H](Cc3ccc(OCC(=O)O)cc3)NC(=O)[C@H](Cc3ccc(OCC(=O)O)cc3)NC(=O)CSC[C@@H](C(=O)N[C@@H](CCN)C(N)=O)NC(=O)[C@@H](CCN)NC(=O)[C@H](C(C)C)NC(=O)[C@H](CC3CCCCC3)NC(=O)[C@H](CCN)NC(=O)[C@@H](CC(C)C)NC(=O)[C@H](C)N(C)C(=O)[C@H](Cc3ccc(O)cc3)NC(=O)[C@H](Cc3ccc(-c4ccccc4)cc3)NC(=O)[C@H](Cc3ccc(O)cc3)NC2=O)c1 [Compound 1872] ({CH2CO}-Y(Carboxymethyl)Y(Carboxymethyl)D[Phe(3-Me)]Y[Bip]Y[NMeA][dL][Dab][Cha]V[dDab]C[Dab]-NH2; thioether N-14) |
| 0.01 | CC(C)C[C@@H]1NC(=O)[C@H](CC(N)=O)NC(=O)[C@@H](CC(C)C)NC(=O)[C@H](C)N(C)C(=O)[C@H](CCCNC(N)=O)NC(=O)[C@H](Cc2ccc(-c3ccccc3)cc2)NC(=O)[C@H](C(C)C)NC(=O)[C@H](Cc2c[nH]c3ccccc23)NC(=O)[C@H](CC(=O)O)NC(=O)[C@H](Cc2ccc(O)cc2)NC(=O)[C@H](Cc2ccccc2)NC(=O)CSC[C@@H](C(=O)N[C@@H](C)C(=O)N[C@@H](CCCN)C(=O)O)NC(=O)[C@H](CO)NC(=O)[C@H](C(C)C)NC1=O [Compound 2237] ({CH2CO}-FYDWV[Bip][Cit][NMeA][dL]NLVSCA[Orn]-OH; thioether N-14) |
